Experiments:
[1] = In vivo pharmacokinetics and biodistribution of 131I-radiolabeled drugs in glioma-bearing mice; design: species or system BALB/c mice; settings: [131I]-curcumin
Method: Labeling conditions were systematically optimized by varying pH, drug concentration, oxidant amount, and reaction time. […] Purification was achieved by RP-HPLC to remove free iodine and impurities. […] The radiochemical yield was determined by calculating the percentage of the total radioactivity attributed to the radio-iodinated compound, using the following equation [105, 106]: Radiochemical yield %=Activity of labeled compond/Total activity ×100
All animal procedures were conducted in accordance with arrive guidelines and were approved by the Research Ethics Committee at the Faculty of Pharmacy, The British university in Egypt, with approval number (EX-2508). Male BALB/c mice (6 weeks old, weighing 20–25 g) were utilized for the study. Prior to the start of experiments, animals were acclimatized for two weeks under controlled environmental conditions (25 ± 2 °C, 12 h light/dark cycle) in group-housed (3–5 mice/cage) polypropylene cages at the animal house of the Egyptian Atomic Energy Authority. […] For induction of brain tumor in mice, they were anesthetized through intraperitoneal injection of 0.1 mL of ketamine-xylazine solution containing ketamine HCl (25 mg/mL) and xylazine (2.5 mg/mL) as described in current protocols. To implant cells intracranially, a calibrated 26-gauge 701N Hamilton micro-syringe (Micromeasure B.V., The Hague, The Netherlands) was used to inject 5 µL of 2.5 × 10^6 cells of CT-2A glioma cell suspension intracranially through the post glenoid foramen as previously reported. The right auricle was slowly pushed forward during the procedure, exposing the site of insertion. The syringe was held at an appropriate angle, and the cell suspension was slowly injected over 30 s. On completion, the needle was removed gently while applying light finger pressure to prevent bleeding. Additional pressure was applied for an additional 30 s after the removal of the needle to achieve hemostasis.
One hundred and eighty BALB/c mice were randomly assigned into six experimental groups, each further divided into six subgroups (n = 5 per subgroup), corresponding to specific time points post-injection: 0.5, 1, 2, 4, 8, and 24 h. […] Formulations were prepared under aseptic conditions using sterile water for injection and a laminar flow hood.
At each time point, five mice per group were anesthetized using isoflurane, and blood samples were collected by cardiac puncture into pre-heparinized polypropylene tubes. Mice were then euthanized by CO2 inhalation, and organs including the brain, liver, and kidneys and others were excised, rinsed with physiological saline, gently blotted, and weighed. Tissue and plasma samples were analyzed for radioactivity using a well-type γ-scintillation counter (SR-7,Nuclear Enterprises Ltd., San Carlos, CA, USA) and data were expressed as the percentage of the injected dose per gram of tissue (%ID/g).
The mean radioactivity values (represented as % injected dose per gram of tissue, %ID/g) acquired at various time points were examined using PKSolver, a Microsoft Excel add-in, in order to evaluate the pharmacokinetic behavior and tissue distribution of the radiolabeled formulations. […] AUC values based on time-radioactivity data were calculated using the trapezoidal rule.
Two quantitative parameters were computed using the AUC values obtained from the biodistribution study in order to assess the targeting performance and tissue selectivity of the formulations. The following equation was used to calculate tumor targeting efficiency (%): Tumor targeting efficiency %= AUC0−24 glioma/AUC0−24 blood x100

U87 cells = experiment: MTT assay for cell viability; assay type: cell-based; settings: Homo sapiens, U-87 MG, 24 h incubation
Method: U87 cells were maintained in DMEM supplemented with 10% fetal bovine serum and antibiotics (100 U/mL penicillin, 100 µg/mL streptomycin) at 37 °C in a humidified 5% CO2 atmosphere under sterile conditions. To ensure accurate experimental comparisons, all experiments included two control groups: a negative control of cells incubated in drug-free medium, and a solvent control with cells exposed to drug-free medium containing 0.5% DMSO, to evaluate any potential solvent toxicity. Cell viability was determined using the MTT assay after a 24 h incubation of U87 cells with various drug formulations. These included free atorvastatin, free curcumin, a solution combining atorvastatin and curcumin, At-Cu LNCs and FA-At-Cu LNCs. Stock solutions (2 mg/mL) for individual free drugs and their combination were prepared in phosphate-buffered saline (PBS) containing 1% sterile DMSO to ensure complete solubilization, from which serial dilutions (25–800 µg/mL) were then made. At-Cu LNCs and FA-At-Cu LNCs were sonicated for 5 min prior to preparing their serial dilutions (0.025–250 µg/mL). […] The resultant formazan crystals were dissolved in acidified isopropanol, and absorbance was measured at 560 nm using PHERAstar microplate reader (BMG Labtech, Ortenberg, Germany). Cell viability was expressed as a percentage of untreated control cells, and half-maximal inhibitory concentrations (IC50) were calculated. […]

[2] = cited from earlier work
[3] = Solubility study of folic acid in acetone; assay type: physicochemical; settings: sedimentation at 40 mg
Method: The optimized formulation, composed of 39.60% w/w solutol, 10.50% w/w oils and 16.60 mg total drugs, was selected using Design Expert® software based on achieving the smallest PS, then prepared and experimentally evaluated to verify agreement between predicted and actual values. […] Accordingly, LNCs functionalized with 10, 20, and 30 mg FA were prepared and assessed for PS, PDI, and ZP. […] This oily phase was then mixed with the aqueous phase (composed of 100 mg sodium chloride in 2.5 mL distilled water). Then the mixture was subjected to three thermal cycling intervals (85 °C and 55 °C) under magnetic stirring. Finally ice-cold water was added till 10 g formulation was obtained. Stirring then continued for 10 min at room temperature.

[4] = i.v. 2 mg/kg, glioma-bearing mice

SMILES | AUC (0–24 h) Intestine, curcumin ([1]; i.v.) [%ID*h/g tissue] | AUC (0–24 h) Spleen, curcumin ([1]; i.v.) [%ID*h/g tissue] | AUC (0–24 h) kidneys, curcumin ([1]; i.v.) [%ID*h/g tissue] | AUC (0–24 h) liver, curcumin ([1]; i.v.) [%ID*h/g tissue] | AUC (0–24 h) Blood, curcumin [1, 4] [%ID*h/g tissue] | AUC (0–24 h) Brain, curcumin [1, 4] [%ID*h/g tissue] | AUC (0–24 h) Glioma, curcumin [1, 4] [%ID*h/g tissue] | IC50 (U87 cells) [µg/mL] | Renal excretion of atorvastatin and its active metabolites [2] | Complete solubility in acetone [3]
COc1cc(/C=C/C(=O)CC(=O)/C=C/c2ccc(O)c(OC)c2)ccc1O [curcumin, Curcumin] | 526.50 ± 111.63 | 7.07 ± 1.70 | 57.87 ± 12.47 | 711.50 ± 114.83 | 72.27 ± 15.44 | 1.47 ± 0.44 | 3.72 ± 1.34 | 724 ± 78.3 | – | –
CC(C)c1c(C(=O)Nc2ccccc2)c(-c2ccccc2)c(-c2ccc(F)cc2)n1CC[C@@H](O)C[C@@H](O)CC(=O)O [atorvastatin, Atorvastatin calcium] | – | – | – | – | – | – | – | 680 ± 17.2 | less than 2 % of the dose | –
Nc1nc2ncc(CNc3ccc(C(=O)N[C@@H](CCC(=O)O)C(=O)O)cc3)nc2c(=O)[nH]1 [FA, Folic acid] | – | – | – | – | – | – | – | – | – | up to 30 mg
